Measurements: patent US6410685B1, “Antistress agents and functional foods” (Calpis Co., Ltd., priority 1997, dated 2002)
Marks after values point to notes of the source that are not given here.

Tested on: Wister rats exposed to cold stress
Assay: Blood pressure by tail-cuff method in rats exposed to cold stress
Assay type: in vivo, rat
Conditions: Example 5, day 10, 3 mg/kg body weight of single tripeptide oral
Excerpt: 24 male Wister rats (body weight about 300 g) were preliminarily fed for one week. During the preliminary feeding period and the experimental period, the rats were restrictively fed with commercial diet (trade name “CE-2” manufactured by NIHON CREA CO.), and allowed to take water ad libitum.
After the preliminary feeding period, the rats were divided into three groups (eight rats each), namely, (1) the group not exposed to stress and given saline, (2) the group exposed to stress and given saline, and (3) the group exposed to stress, and given VPP and IPP. The animals of groups (2) and (3) were exposed to stress for 9 days by putting them in a cold room (4° C.) for 4 hours per one day.
On the day 10, rats of groups (1) and (2) were given 1 ml of saline, and rats of group (3) were given 1 ml of saline containing 3 mg/kg body weight each of IPP and VPP synthesized in Example 3, by forcible administration into stomach via an oral sonde. After the administration, the rats of groups (2) and (3) were exposed to cold stress for 4 hours. Two hours after finishing the stress loading, blood pressure of the rats in each group was measured by tail-cuff method using a non-warming, non-invasive rat sphygmomanometer (Type PE-300, manufactured by CSI CO.).
After the preliminary feeding period, the rats were divided into three groups (eight rats each), namely, (1) the group given saline, (2) the group given VPP, and (3) the group given IPP. The rats of groups (1) to (3) were exposed to stress for 9 days by, as in Example 4, putting them in a cold room (4° C.) for 4 hours per one day.
On the day 10, rats of group (1) were given 1 ml of saline, and rats of group (2) and (3) were given 1 ml of saline containing 3 mg/kg body weight of IPP or 3 mg/kg body weight of VPP, respectively, synthesized in Example 3, by forcible administration into stomach via an oral sonde. After the administration, the rats of groups (1) to (3) were exposed to cold stress for 4 hours, and blood pressure was measured as in Example 4.
The test was carried out in the same way as in Example 5 except that the group (1) rats were given 2 ml of saline, and the rats in group (2) were given 5 ml/kg body weight of the fermented milk obtained in Example 1, and the rats in group (3) were given 2 ml of saline containing 150 mg/kg of the purified tripeptide fraction powders obtained in Example 2, respectively. After the administration of the samples and exposure to stress, the blood pressure of each rat was measured.

Substance: Ile-Pro-Pro [IPP]
- Diastolic Blood Pressure: 102* mmHg
- Systolic Blood Pressure: 130* mmHg

Substance: Val-Pro-Pro [VPP]
- Diastolic Blood Pressure: 101* mmHg
- Systolic Blood Pressure: 131* mmHg
